System: 186277-243-T-J2-PDC complex spheroid viability
Assay: Anticancer human tumor 186277-243-T-J2-PDC patient-derived colon adenocarcinoma cell line growth inhibition [GQUAD]
Conditions: for IC50: curve of first compound; for viability, T/C: stronger effect = lower value
Summary of the method: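 Tumor cells were grown as complex spheroids with HUVEC endothelial cells and mesenchymal stem cells as stroma. G-quadruplex stabilizers were combined with targeted agents over half-log dilutions from near the clinical Cmax, or from 10 microM.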

[1] = second compound 0.0316 µM, first compound 0.0316 µM
[2] = second compound 0.0316 µM, first compound 0.1 µM
[3] = second compound 0.0316 µM, first compound 0.316 µM
[4] = second compound 0.0316 µM, first compound 1 µM
[5] = second compound 0.0316 µM, first compound 3.16 µM
[6] = second compound 0.0316 µM, first compound 10 µM
[7] = second compound 0.1 µM, first compound 0.0316 µM
[8] = second compound 0.1 µM, first compound 0.1 µM
[9] = second compound 0.1 µM, first compound 0.316 µM
[10] = second compound 0.1 µM, first compound 1 µM
[11] = second compound 0.1 µM, first compound 3.16 µM
[12] = second compound 0.1 µM, first compound 10 µM
[13] = second compound 0.316 µM, first compound 0.0316 µM
[14] = second compound 0.316 µM, first compound 0.1 µM
[15] = second compound 0.316 µM, first compound 0.316 µM
[16] = second compound 0.316 µM, first compound 1 µM
[17] = second compound 0.316 µM, first compound 3.16 µM
[18] = second compound 0.316 µM, first compound 10 µM
[19] = second compound 1 µM, first compound 0.0316 µM
[20] = second compound 1 µM, first compound 0.1 µM
[21] = second compound 1 µM, first compound 0.316 µM
[22] = second compound 1 µM, first compound 1 µM
[23] = second compound 1 µM, first compound 3.16 µM
[24] = second compound 1 µM, first compound 10 µM
[25] = second compound 3.16 µM, first compound 0.0316 µM
[26] = second compound 3.16 µM, first compound 0.1 µM
[27] = second compound 3.16 µM, first compound 0.316 µM
[28] = second compound 3.16 µM, first compound 1 µM
[29] = second compound 3.16 µM, first compound 3.16 µM
[30] = second compound 3.16 µM, first compound 10 µM
[31] = second compound 10 µM, first compound 0.0316 µM
[32] = second compound 10 µM, first compound 0.1 µM
[33] = second compound 10 µM, first compound 0.316 µM
[34] = second compound 10 µM, first compound 1 µM
[35] = second compound 10 µM, first compound 3.16 µM
[36] = second compound 10 µM, first compound 10 µM
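Further: spheroids exposed to drugs for 7 days.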
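Wherever viability, T/C is given: 100% = DMSO vehicle control viability.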

`CC(C)n1c(=O)n(C)c2cnc3cc(F)c(-c4ccc(OCCCN5CCCCC5)nc4)cc3c21` + CN(C)c1ccc(Nc2c3ccc(NC(=O)CCN4CCCC4)cc3nc3cc(NC(=O)CCN4CCCC4)ccc23)cc1 gave an IC50 (second compound 0.0316 µM) of over 10000 nM, an IC50 (second compound 0.1 µM) of over 10000 nM and an IC50 (second compound 0.316 µM) of over 10000 nM. The IC50 (second compound 1 µM) was over 10000 nM, the IC50 (second compound 3.16 µM) was over 10000 nM and the IC50 (second compound 10 µM) was 6100 nM. For the same compound, the viability, T/C [1] was 94.4%, the viability, T/C [2] was 108% and the viability, T/C [3] was 91.8%. It also gave a viability, T/C [4] of 98.1%, a viability, T/C [5] of 109% and a viability, T/C [6] of 97.9%. It also gave a viability, T/C [7] of 110%, a viability, T/C [8] of 105% and a viability, T/C [9] of 102%. It also gave a viability, T/C [10] of 110%, a viability, T/C [11] of 114% and a viability, T/C [12] of 95.3%. For the same compound, the viability, T/C [13] was 97.9%, the viability, T/C [14] was 115% and the viability, T/C [15] was 103%. It also gave a viability, T/C [16] of 98.3%, a viability, T/C [17] of 122% and a viability, T/C [18] of 93.7%. The viability, T/C [19] was 132%, the viability, T/C [20] was 87% and the viability, T/C [21] was 97.6%. The viability, T/C [22] was 100%, the viability, T/C [23] was 111% and the viability, T/C [24] was 86.1%. For the same compound, the viability, T/C [25] was 101%, the viability, T/C [26] was 84.9% and the viability, T/C [27] was 97.2%. It also gave a viability, T/C [28] of 118%, a viability, T/C [29] of 119% and a viability, T/C [30] of 84.8%. The viability, T/C [31] was 118%, the viability, T/C [32] was 96.8% and the viability, T/C [33] was 112%. For the same compound, the viability, T/C [34] was 88.8%, the viability, T/C [35] was 66.4% and the viability, T/C [36] was 37.8%.

Compound `CC1COCCN1c1cc(-c2ccnn2C)c2ccnc(-c3ccn[nH]3)c2n1` (centres undefined) + CN(C)c1ccc(Nc2c3ccc(NC(=O)CCN4CCCC4)cc3nc3cc(NC(=O)CCN4CCCC4)ccc23)cc1 has an IC50 (second compound 0.0316 µM) of 51.5 nM, an IC50 (second compound 0.1 µM) of 46.4 nM and an IC50 (second compound 0.316 µM) of 50.9 nM. It also gave an IC50 (second compound 1 µM) of under 31.6 nM, an IC50 (second compound 3.16 µM) of 40.8 nM and an IC50 (second compound 10 µM) of 32.5 nM. For the same compound, the viability, T/C [1] was 77.7%, the viability, T/C [2] was 12.4% and the viability, T/C [3] was 6.8%. The viability, T/C [4] was 5.06%, the viability, T/C [5] was 4.62% and the viability, T/C [6] was 5.21%. The viability, T/C [7] was 68.3%, the viability, T/C [8] was 13.6% and the viability, T/C [9] was 6.89%. For the same compound, the viability, T/C [10] was 4.08%, the viability, T/C [11] was 5.19% and the viability, T/C [12] was 5.02%. For the same compound, the viability, T/C [13] was 76.5%, the viability, T/C [14] was 12.4% and the viability, T/C [15] was 5.74%. For the same compound, the viability, T/C [16] was 4.54%, the viability, T/C [17] was 5.22% and the viability, T/C [18] was 5.43%. It also gave a viability, T/C [19] of 49.3%, a viability, T/C [20] of 12.6% and a viability, T/C [21] of 6.08%. For the same compound, the viability, T/C [22] was 4.26%, the viability, T/C [23] was 5.15% and the viability, T/C [24] was 4.9%. The viability, T/C [25] was 60.6%, the viability, T/C [26] was 13.1% and the viability, T/C [27] was 6.06%. The viability, T/C [28] was 4.8%, the viability, T/C [29] was 4.59% and the viability, T/C [30] was 4.41%. The viability, T/C [31] was 51%, the viability, T/C [32] was 12.1% and the viability, T/C [33] was 5.91%. It also gave a viability, T/C [34] of 4.1%, a viability, T/C [35] of 4.19% and a viability, T/C [36] of 4.01%.
